From US8513010B2, “Dendritic cells pulsed with a bisphosphonate” (Medinet Co. Ltd., priority 2004, dated 2013)

Assays:
γδ T-cells [1] = experiment: Culture of peripheral blood mononuclear cells with Aredia and IL-2, phenotype by flow cytometer (Example 4); type: cell-based, human; conditions: peripheral blood monocyte suspension, Aredia 10 μM, IL-2 1,000 U/ml, cultivated 14 days
Procedure: From a healthy donor 30 ml of peripheral blood was collected, and peripheral blood mononuclear cells were collected using a density gradient medium for blood cell separation. The cells collected were washed several times to remove platelets and the like.
The peripheral blood monocytes obtained were suspended in AIM-V medium (10% FCS), and Aredia was added so that the concentration in the peripheral blood monocyte suspension was 10 μM.
This was cultivated for 14 days. During this period, AIM-V (10% FCS) medium and IL-2, at a final concentration of 1,000 U/ml, were added in accordance with the cell proliferation.
Using a flow cytometer, the phenotype of the cells cultured was confirmed to be a cell subset containing at least 95% of γδ T-cells.

γδ T-cells [2] = experiment: IFN-γ ELISpot confirming activation of γδ T-cells (Example 5); type: cell-based, human; conditions: 30,000 γδ T-cells + 15,000 immature or mature dendritic cells + Aredia 10 μM, versus γδ T-cells alone, γδ T-cells with Aredia only, FIG. 2
Procedure: In each well of a MultiScreen plate (Millipore), 70% ethanol was added and removed within two minutes.
An anti-interferon(IFN)-γ antibody for coating (clone: 1-D1K, MABTECH ELISpot for Human Interferon-γ kit) was diluted with PBS to 15 μg/ml, and added 100 μl/well.
The γδ T-cells obtained in Example 4 were collected by centrifugation and washed twice with AIM-V.
To 30,000 of the γδ T-cells collected, and 15,000 of the immature or mature dendritic cells obtained in Example 1 Aredia, prepared to have a final concentration of 10 μM, was added, and precultivated in a 15 ml tube (Falcon) under the conditions of 37° C. and 5% CO2 for two hours. At the same time, precultivation of γδ T-cells by themselves, precultivation of γδ T-cells with only Aredia added thereto, and precultivation of the respective dendritic cells by themselves were also conducted. Each culture volume was adjusted to 300 μl.
The plate was washed with PBS after blocking, and each group of cells which completed precultivation under the respective conditions was disseminated in three wells, 100 μl/well.
They were cultured overnight under the conditions of 37° C. and 5% CO2. […]
After confirming that the membrane on the plate was dry, the number of spots was measured using an ELISpot reader (AID Autoimmune Diagnostika GmbH), and the data was analyzed using the AID software version 3.1 (AID).

NCCC(O)(P(=O)([O-])O)P(=O)([O-])O.O.O.O.O.O.[Na+].[Na+] [Aredia, pamidronate disodium pentahydrate]
γδ T-cells in the cultured cell subset (γδ T-cells [1]): at least 95%
number of spots (IFN-γ ELISpot) (γδ T-cells [2]): increased only when the dendritic cells and Aredia were added simultaneously to the γδ T-cells
spot intensity (IFN-γ ELISpot) (γδ T-cells [2]): increased only when the dendritic cells and Aredia were added simultaneously to the γδ T-cells
